For the data set the following is noted: Crystal; visual observation.

Numbers after ± are expanded uncertainties.

For `CO[C@@]12[C@H](COC(N)=O)C3=C(C(=O)C(C)=C(N)C3=O)N1C[C@@H]1N[C@@H]12` [ametycine], the Normal melting temperature amounted to 360.00 ± 1 °C.
